Where two headings read alike, the source gives them in different places.
Assays:
[1] = biological target: T1, NKCC1 (Homo sapiens, UniProt P55011); experiment: NKCC1-mediated K+ influx (83Rb tracer uptake) in native HEK293 cells, hypertonic saline, 100 μM ouabain; assay type: cell-based
T1 construct: endogenous in cells; host or cells: native HEK293 cells
T1 sequence (P55011 1-1212): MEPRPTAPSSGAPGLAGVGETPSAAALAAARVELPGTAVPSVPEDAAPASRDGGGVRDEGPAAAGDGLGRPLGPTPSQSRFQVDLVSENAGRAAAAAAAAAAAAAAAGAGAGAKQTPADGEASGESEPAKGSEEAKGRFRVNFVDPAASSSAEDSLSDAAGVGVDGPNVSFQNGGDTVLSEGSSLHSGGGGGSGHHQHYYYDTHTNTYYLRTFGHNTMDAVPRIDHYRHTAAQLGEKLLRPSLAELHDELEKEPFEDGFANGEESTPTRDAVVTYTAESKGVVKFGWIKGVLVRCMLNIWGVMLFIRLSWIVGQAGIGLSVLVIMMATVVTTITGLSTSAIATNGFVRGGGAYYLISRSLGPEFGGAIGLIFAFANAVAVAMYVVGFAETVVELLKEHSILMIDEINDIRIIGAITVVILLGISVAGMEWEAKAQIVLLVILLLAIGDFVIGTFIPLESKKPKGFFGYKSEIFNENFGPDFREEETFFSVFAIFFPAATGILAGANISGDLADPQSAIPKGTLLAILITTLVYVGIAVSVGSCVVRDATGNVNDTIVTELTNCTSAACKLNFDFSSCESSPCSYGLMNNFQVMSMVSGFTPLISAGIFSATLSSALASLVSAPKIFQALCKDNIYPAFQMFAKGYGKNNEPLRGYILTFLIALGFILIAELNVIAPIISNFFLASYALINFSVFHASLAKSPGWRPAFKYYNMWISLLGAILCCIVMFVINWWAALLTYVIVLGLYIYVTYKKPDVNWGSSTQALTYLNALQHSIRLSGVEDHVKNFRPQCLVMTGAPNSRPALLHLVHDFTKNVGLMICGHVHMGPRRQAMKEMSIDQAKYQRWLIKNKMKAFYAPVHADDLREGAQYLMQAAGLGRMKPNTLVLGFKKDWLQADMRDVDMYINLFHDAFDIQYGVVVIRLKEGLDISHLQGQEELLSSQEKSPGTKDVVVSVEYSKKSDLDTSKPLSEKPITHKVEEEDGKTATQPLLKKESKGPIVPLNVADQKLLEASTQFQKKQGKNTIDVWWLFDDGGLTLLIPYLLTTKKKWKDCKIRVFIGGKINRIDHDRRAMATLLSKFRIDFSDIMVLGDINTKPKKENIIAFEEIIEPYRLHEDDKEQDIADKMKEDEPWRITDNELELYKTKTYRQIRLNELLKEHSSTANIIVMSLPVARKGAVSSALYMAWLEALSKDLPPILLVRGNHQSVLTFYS
Procedure, shortened: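 Native cells in slightly hypertonic saline with 100 μM ouabain; 15 min preincubation then 15 min 83Rb uptake (0.25 μCi/mL), scintillation counting normalized to protein. Compounds at 2 μM and 20 μM; flux scaled 1000 (no drug) to 0 (20 μM bumetanide), triplicate dishes.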

[2] = Fragile X, Tuberous Sclerosis, Down syndrome, or Parkinson Disease; cited from earlier work
[3] = test system: NKCC2; settings: in words; cited from earlier work
[4] = test system: NKCC1-KO HEK293 cells; experiment: K+ influx (83Rb uptake) in NKCC1-KO HEK293 cells; assay type: cell-based, human
Procedure: A. Contribution of NKCC1 to K^+ influx in native HEK293 cells under isosmotic (basal) conditions. K^+ influx was measured in untreated cells (Cntr), cells exposed to 100 μM ouabain (ouab), 20 μM bumetanide (bum), or both. B. Signal separation between native HEK293 cells with and without 20 μM bumetanide. Cells were tested in a hypertonic saline and in the presence of 100 μM ouabain. These conditions became our standard conditions for drug testing. C. Absence of bumetanide-sensitive K^+ influx in A-NKCC1 HEK293 cells. Note that the K^+ influx was reduced to basal levels.
NKCC1 expression was eliminated from HEK293 cells using CRISPR/cas9. Cells were transfected with a vector expressing a cas9-EGFP fusion protein and a guide RNA specific to a NKCC1 sequence ([…]; SEQ ID NO: 1) located within exon 1. Two days post transfection, cells were FACS sorted and cells expressing EGFP and cas9 (green cells) were plated at 1 cell per well in 96 well plates. Cells were grown to confluence, duplicated, and tested for NKCC1 function using Tl+ (another congener of K^+) and a thallium sensitive fluorescent dye in the presence or absence of bumetanide.

[5] = cited from earlier work
[6] = HEK293, 2 μM, no drug = 1000, 20 μM bumetanide = 0, read-out: NKCC1 mediated flux inhibition at 2 μM (%)
[7] = HEK293, 20 μM, no drug = 1000, 20 μM bumetanide = 0, read-out: NKCC1 mediated flux inhibition at 20 μM (%)

inhibition at 2 µM [1, 6] [%]	inhibition at 20 µM [1, 7] [%]	Compound	also measured
30 to 50	30 to 50	CCCCNc1cc(C(=O)OC)cc(S(=N)(=O)Nc2ccnnc2)c1Oc1ccccc1 (stereo not shown) [Compound 45, methyl 3-(butylamino)-4-phenoxy-5-[(pyridazin-4-ylamino)sulfonimidoyl]benzoate]	
	10 to 30	CCCCNc1cc(C(=O)OC)cc(S(=N)(=O)N2CC3CCC(C2)O3)c1Oc1ccccc1 (stereo not shown) [Compound 20, methyl 3-(butylamino)-5-(8-oxa-3-azabicyclo[3.2.1]octan-3-ylsulfonimidoyl)-4-phenoxy-benzoate]	
30 to 50	50 to 75	CCCCNc1cc(C(=O)O)cc(S(C)(=O)=NC)c1Oc1ccccc1 (stereo not shown) [Compound 134, 3-(butylamino)-5-(N,S-dimethylsulfonimidoyl)-4-phenoxy-benzoic acid]	
≥ 75	≥ 75	CCCCNc1cc(C(=O)O)cc(S(=N)(=O)NCc2cccc(Cl)c2)c1Oc1ccccc1 (stereo not shown) [Compound 71, 3-(butylamino)-5-[[(3-chlorophenyl)methylamino]sulfonimidoyl]-4-phenoxy-benzoic acid]	
30 to 50	10 to 30	CCCCNc1cc(C(=O)OC)cc(S(=N)(=O)N2CCc3ccccc32)c1Oc1ccccc1 (stereo not shown) [Compound 19, methyl 3-(butylamino)-5-(indolin-1-ylsulfonimidoyl)-4-phenoxy-benzoate]	
	30 to 50	CCCCNc1cc(C(=O)O)cc(S(=O)(=NC)N(C)CC)c1Oc1ccccc1 (stereo not drawn) [Compound 100, 3-(butylamino)-5-[S-[ethyl(methyl)amino]-N-methyl-sulfonimidoyl]-4-phenoxybenzoic acid]	
10 to 30	50 to 75	CCCCNc1cc(C(=O)OC)cc(S(=N)(=O)Nc2ccccc2)c1Oc1ccccc1 (stereo not shown) [Compound 7, methyl 3-(anilinosulfonimidoyl)-5-(butylamino)-4-phenoxy-benzoate]	
	30 to 50	CCCCNc1cc(C(=O)O)cc(S(=N)(=O)NC2CCOCC2)c1Oc1ccccc1 (stereo not shown) [Compound 75, 3-(butylamino)-4-phenoxy-5-[(tetrahydropyran-4-ylamino)sulfonimidoyl]benzoic acid]	
50 to 75	50 to 75	CCCCNc1cc(C(=O)O)cc(S(=N)(=O)N2CC3CCC(C2)O3)c1Oc1ccccc1 (stereo not shown) [Compound 69, 3-(butylamino)-5-(8-oxa-3-azabicyclo[3.2.1]octan-3-ylsulfonimidoyl)-4-phenoxy-benzoic acid]	

The next lines start with the compound.

Compound	inhibition at 2 µM [1, 6] [%]	inhibition at 20 µM [1, 7] [%]	also measured
CCCCNc1cc(C(=O)O)cc(S(N)(=O)=O)c1Oc1ccccc1 [Bumetanide]			flux (normalized) ([1]; 2 μM, no drug flux=1000, 20 μM bumetanide flux=0, n=6): 171±21; attenuation of severity of disorders [2]: attenuation; diuretic potency [3]: high diuretic potency; effect on K+ influx in NKCC1-KO cells [4]: no longer affected K^+ influx; brain levels lower than the plasma ([5]; brain vs plasma): 200-300 fold; blood brain barrier permeability ([5]; in words): quite impermeable
CCCCNc1cc(C(=O)O)cc(S(=N)(=O)N2CCCC2)c1Oc1ccccc1 (stereo not shown) [Compound 53, 3-(butylamino)-4-phenoxy-5-(pyrrolidin-1-ylsulfonimidoyl)benzoic acid]	30 to 50	≥ 75	
CCCCNc1cc(C(=O)NCC(F)F)cc(S(=N)(=O)Nc2ccccc2)c1Oc1ccccc1 (stereo not shown) [Compound 110, 3-(anilinosulfonimidoyl)-5-(butylamino)-N-(2,2-difluoroethyl)-4-phenoxy-benzamide]		10 to 30	
CCCCNc1cc(C(=O)O)cc(S(=N)(=O)NCCc2ccccc2)c1Oc1ccccc1 (stereo not shown) [Compound 81, 3-(butylamino)-4-phenoxy-5-[(2-phenylethylamino)sulfonimidoyl]benzoic acid]	30 to 50	≥ 75	
CCCCNc1cc(C(=O)NCC(F)(F)F)cc(S(=N)(=O)Nc2ccccc2)c1Oc1ccccc1 (stereo not shown) [Compound 111, 3-(anilinosulfonimidoyl)-5-(butylamino)-N-(2,2,2-trifluoroethyl)-4-phenoxy-benzamide]		10 to 30	
CCCCNc1cc(C(=O)O)cc(S(=N)(=O)Nc2ccc(Cl)cc2)c1Oc1ccccc1 (stereo not shown) [Compound 78, 3-(butylamino)-5-[(4-chloroanilino)sulfonimidoyl]-4-phenoxy-benzoic acid]	50 to 75	≥ 75	
CCCCNc1cc(C(=O)OC)cc(S(=N)(=O)Nc2ncccn2)c1Oc1ccccc1 (stereo not shown) [Compound 31, methyl 3-(butylamino)-4-phenoxy-5-[(pyrimidin-2-ylamino)sulfonimidoyl]benzoate]		10 to 30	
CCCCNc1cc(C(=O)OC)cc(S(=N)(=O)NCc2cccc(Cl)c2)c1Oc1ccccc1 (stereo not shown) [Compound 23, methyl 3-(butylamino)-5-[[(3-chlorophenyl)methylamino]sulfonimidoyl]-4-phenoxy-benzoate]	30 to 50	10 to 30	
CCCCNc1cc(C(=O)O)cc(S(=N)(=O)Nc2ccccc2Cl)c1Oc1ccccc1 (stereo not shown) [Compound 77, 3-(butylamino)-5-[(2-chloroanilino)sulfonimidoyl]-4-phenoxy-benzoic acid]	30 to 50	≥ 75	
CCCCNc1cc(C(=O)OC)cc(S(=N)(=O)Nc2ccc(Cl)cc2)c1Oc1ccccc1 (stereo not shown) [Compound 27, methyl 3-(butylamino)-5-[(4-chloroanilino)sulfonimidoyl]-4-phenoxy-benzoate]		10 to 30	
CCCCNc1cc(C(=O)NCC(F)(F)F)cc(S(=N)(=O)NC2CCOCC2)c1Oc1ccccc1 (stereo not shown) [Compound 123, 3-(butylamino)-4-phenoxy-5-[(tetrahydropyran-4-ylamino)sulfonimidoyl]-N-(2,2,2-trifluoroethyl)benzamide]	30 to 50	10 to 30	
CCCCNc1cc(C(=O)OC)cc(S(=N)(=O)Nc2cccc(OC)c2)c1Oc1ccccc1 (stereo not shown) [Compound 17, methyl 3-(butylamino)-5-[(3-methoxyanilino)sulfonimidoyl]-4-phenoxy-benzoate]	10 to 30	30 to 50	
CCCCNc1cc(C(=O)O)cc(S(N)(=O)=O)c1Oc1ccccc1 [Ref 1, bumetanide, reference compound]			inhibition at 2 µM ([1]; 2 μM, native HEK293, read-out: Percent inhibition of drugs on NKCC1, 2 uM): 87%; inhibition at 20 µM ([1]; 20 μM, native HEK293, read-out: Percent inhibition of drugs on NKCC1, 20 uM): 100%; K+ influx in the presence of compound ([1]; 20 μM, native HEK293 without compound 7000-9000): 600-900 pmoles K+ per mg protein per m
CCCCNc1cc(C(=O)OC)cc(S(=N)(=O)NCCc2cccc(Cl)c2)c1Oc1ccccc1 (stereo not shown) [Compound 35, methyl 3-(butylamino)-5-[[2-(3-chlorophenyl)ethylamino]sulfonimidoyl]-4-phenoxy-benzoate]		30 to 50	

Source: patent US20260374782A1, “NEW COMPOUNDS, PROCESSES FOR PREPARING THE SAME AND THEIR USE AS DRUGS” (B&A ONCOMEDICAL, priority 2022, published 2026)
